For assay [1], the system named is human skin fibroblast line ASF-2. Kind of assay: Actin staining (cytoskeletal organization). It is filed as cell-based. The note with it: young cells, after 3 days, treated vs untreated. The protocol: (§1) All cell culture experiments were performed on early and mid passage cultures (about 20 to 40% lifespan completed) of normal human skin fibroblast line, designated ASF-2. In order to check the effects of test compounds on senescent cells, late passage cells with more than 90% lifespan completed were used. ASF-2 cell line was established from a mammary skin biopsy obtained from a young, non-smoking and healthy […] at the time of breast reduction operation. Normal culture conditions of medium (DMEM) containing antibiotics, 10% foetal calf serum, and incubation at 37° C. with 95% humidity were used. The effects of the test compounds were determined using the following procedures.
Actin staining. The pattern of cytoskeletal actin staining was studied by staining the cells with florescent ligand FITC-labelled Phalloidin, using a florescence microscope.

Assay [2] concerns SKH-1 hairless mice. The assay can be described thus: Hairless mouse assay: skin moisture content. The assay is classed as in vivo. The text has this: Evaluation of cutaneous effects of new topical compounds in the hirless mouse assay. The purpose of this study was to evaluate new topical compounds for their safety and efficacy as topical skin anti-aging treatments. The hairless mouse model is a well established model for studying the treatments of photoaging. […] The present study was used to investigate a new class of anti-aging compounds in comparison to classical ones. […] Topical compounds and vehicle controls were be applied daily (Monday-Friday) for 3 weeks to the dorsal skin of hairless mice. At baseline (prior to the 1st treatment), and weekly, the dorsal skin was measured for: transepidermal water loss (TEWL); skin moisture content; and skin elasticity.
(§2) Experimental Design. 48 female SKH-1 hairless mice (5 weeks old, 20-25 grams, Charles River Laboratories, Wilmington, Mass.) are individually housed in filter-top cages, and acclimated for 5-7 days after delivery. The mice are divided into 8 treatment groups (n=6), including two different control groups (untreated control, vehicle control) and a therapeutic control (tretinoin 0.05% Renova™ cream). Cage cards are marked to indicate treatment groups 1-8. Water and mouse chow are provided ad libitum.
Skin Moisture Content & Elasticity. The measurements of skin moisture content and skin elasticity are important noninvasive methods used to characterize the effects of moisturizers and anti-wrinkle effects on skin. A DermaLab™ combination instrument were used to measure the skin moisture content and elasticity of the target skin sites at baseline and at weekly intervals. This instrument is equipped with dual probes which are placed on the skin surface and a quantitative measurement taken of the respective parameters and the measurements recorded on an integrated computer. Mean measurements was determined for each treatment group over time, and comparative statistics used to evaluate product effectiveness.
(§3) Topical Treatments. Beginning on Treatment Day 1, test products are applied topically each morning (Monday through Friday) after erythema evaluations for 3 weeks. Using a positive displacement pipette, 20 mg of each agent is applied to a 2 cm×2 cm area of the center midline of the back. The material was spread across the treatment area with the pipette tip.

Assay [3] has as its system SKH-1 hairless mice. Kind of assay: Hairless mouse assay: epidermal bromodeoxyuridine (BrdU) staining. It is filed as in vivo.
Excerpt: This study determined the effect of topical compound formulations on epidermal cell proliferation using bromodeoxyuridine as an immunohistochemical marker of cell proliferation. Histological examination of the treated and control skin were used to determine cutaneous effects of the topical compounds. Topical tretinoin 0.05% (Renova™) was used as a therapeutic control.
as §2, §3
Bromodeoxyuridine Injection. All animal groups are injected with bromodeoxyuridine (100 mg/kg) I.P. 4 hours after the final application. Animals are sacrificed by CO2 inhalation 3 hours later followed by cervical dislocation. The test sites are excised, and 6 mm punch biopsies are obtained from each treatment site, and from untreated controls. Biopsies are placed into labeled vials containing 4% neutral buffered formalin for paraffin embedding and anti-BrdU staining.
Bromodeoxyuridine Immunohistochemical Staining. Paraffin sections are cut to a […] thickness and stained using the BrdU Immuno-histochemistry kit (X1545K from Exalpha Biologicals, Inc.) and a standard staining protocol. The slides are weakly counterstained in Mayer's hematoxylin and scored under a light microscope for the number of BrdU-positive cells per mm of epidermis for each section. The data are expressed as mean BrdU-positive cells/mm for each treatment group. Differences in BrdU labeling in the treatment groups are statistically analyzed using the Students t-test. Representative photographs are taken of the histological sections of the BrdU-positive staining cells.

For assay [4], the system named is SKH-1 hairless mice. Kind of assay: Hairless mouse assay: skin elasticity. The note with it: 3 weeks of topical treatment. The assay is classed as in vivo. The text has this: Evaluation of cutaneous effects of new topical compounds in the hirless mouse assay. The purpose of this study was to evaluate new topical compounds for their safety and efficacy as topical skin anti-aging treatments. The hairless mouse model is a well established model for studying the treatments of photoaging. This model has been used to study mechanisms, define effective treatment regimens and assess safety for retinoids and other anti-aging products. The present study was used to investigate a new class of anti-aging compounds in comparison to classical ones. Recent clinical studies have shown that this class of compounds improve the appearance of photodamaged skin and decrease transepidermal water loss (TEWL) without causing skin irritation. […] At baseline (prior to the 1st treatment), and weekly, the dorsal skin was measured for: transepidermal water loss (TEWL); skin moisture content; and skin elasticity. […]
Skin Moisture Content & Elasticity. […] This instrument is equipped with dual probes which are placed on the skin surface and a quantitative measurement taken of the respective parameters and the measurements recorded on an integrated computer. Mean measurements was determined for each treatment group over time, and comparative statistics used to evaluate product effectiveness. […]

Assay [5] concerns senescent human skin fibroblasts. Kind of assay: Effects on senescent human skin fibroblasts (morphology, cell number). The assay is classed as cell-based.
Excerpt: B) Cellular parameters: • (4) Cellular morphology: to evaluate cytoplasmic and nuclear stability; • (5) Cytoskeleton organization: to evaluate the stability of the cytoskeleton; • (6) Appearance of senescence-specific β-galactosidase: to rule out pro-aging effects; • (7) Lysosomal staining (Neutral red); • (8) JC-1 Staining of Mitochondria: for evaluation of mitochondrial function; • (9) Rejuvenation studies: for evaluation of reversion effect from aged phenotype to young phenotype; and
as §1

In assay [6] the test system is cytokinin-dependent tobacco callus. Kind of assay: Growth of cytokinin-dependent tobacco callus (plant cell division). The note with it: at concentration with highest activity; activity of kinetin set at 100%. The assay is classed as cell-based, Nicotiana tabacum L. cv. Wisconsin 38. The protocol: The effect on plant cell division. Cytokinin-dependent tobacco callus Nicotiana tabacum L. cv. Wisconsin 38 was maintained at 25° C. in darkness on modified MS medium, containing 4 μmol/l nicotinic acid, 2.4 μmol/l pyridoxine hydrochloride, 1.2 μmol/l thiamine, 26.6 μmol/l glycine, 1.37 μmol/l glutamine, 1.8 μmol/1 myo-inositol, 30 g/l of sucrose, 8 g/l of agar, 5.37 μmol/l NAA and 0.5 μmol/l BAP. Subcultivation was carried out every three weeks. Fourteen days before the bioassay, the callus tissue was transferred to the media without BAP. Biological activity was determined from the increase in fresh callus weight after four weeks of cultivation. Five replicates were prepared for each cytokinin concentration and the entire test was repeated twice. From the obtained data, the concentration with highest activity was selected for each compound tested. Relative activity at this concentration was calculated (see Table 4 below).
The cytokinins to be tested were dissolved in dimethylsulfoxide (DMSO) and the solution brought up to 10^−3M with distilled water.

For the compound `Nc1nc2c(NCc3ccco3)ncnc2[nH]1` [Compound 82, 6-furfurylamino-8-aminopurine], the actin staining pattern entry in assay [1] is recorded as “no obvious differences”. The mean moisture content entry with SKH-1 hairless mice [2] (at week 3) is recorded as “most effective”. The average moisture content result in the assay on SKH-1 hairless mice [2] (compared with the vehicle) is “higher than that of the vehicle”. Further, the “epidermal BrdU staining” value in the assay on SKH-1 hairless mice [3] (after 3 weeks of topical treatment) is “more effective”. In addition, in the assay on SKH-1 hairless mice [3] (epidermal BrdU staining after 3 weeks of topical treatment, 0.1% (tretinoin 0.05%)), the “Mean Nuclei Stained” value amounted to 12.8 ± 13.3. Also, in the assay on SKH-1 hairless mice [4], the skin elasticity entry is reported as “better than controls tested”. For the same compound, the “number of surviving senescent cells” value in assay [5] (7 to 14 days) is given as “maintains the number of surviving senescent cells”. Besides, the “appearance of senescent cells (intracellular debris)” value in assay [5] (40 and 80 μM, vs controls) is reported as “less intracellular debris”. Besides, the “morphology of senescent cells” value in assay [5] (after 14 days of treatment) is reported as “looking relatively younger”. The “Activity (%)” value in assay [6] was 150.10%.

(Values after patent US20130072506A1, “6,8-DISUBSTITUTED PURINE COMPOSITIONS” (priority 2011, published 2013).)
